The IC50 is the concentration that inhibits the measured activity by half. One may read the ED50 as the midpoint of the dose-response relation.

One test addresses δ opioid receptor (Rattus norvegicus, UniProt P33533). Kind of test: Opiate Binding Assay, δ receptor (3[H]-DSLET displacement). To be noted: for Mean IC50 μ/δ Ratio: ratio of mean IC50 values for μ and δ opioid receptors.
The target in the next test is μ opioid receptor (Rattus norvegicus, UniProt P33535). As to the kind of experiment: Opiate Binding Assay, μ receptor (3[H]-DAMGO displacement).
The next test relates to mice. Kind of test: PBQ Writhing Assay. Type of test: in vivo, Charles River male albino mice. To be noted: for ED50: Mus musculus, 0.5 h. An excerpt:
The Writhing Assay is one of the most widely-used experimental procedures for measuring the analgesic activity of different narcotic and nonnarcotic analgesic agents, and involves the continuous, chemically-induced pain of visceral origin to an animal, such as a mouse or rat. [Gyires et al., Arch. int. Pharmacodyn, 267, 131-140 (1984); C. Vander Wende et al., Fed. Proc., 15, 494 (1956); Koster et al. Fed. Proc. 18 412 (1959); and Witken et al., J. Pharmacol. exp. Ther., 133, 400-408 (1961).] Chemicals which may be used to induce this pain include phenylbenzoquinone (PBQ) and acetic acid. As a result of the chemical irritation to the animal, a characteristic stretching and writhing of the animal (dorsiflexion of the animal's back, extension of its hindlimbs and the strong contraction of its abdominal musculature) will generally occur. […] Drugs which reduce the number of writhes of the animal appear to restore the normal nociceptive threshold of the animal.
Charles River male albino mice, weighing 20 to 30 grams were used in this assay.
Thirty minutes after subcutaneous or intragastric administration to ten mice of either 10 mg or 30 mg per kilogram of body weight of a compound of the present invention ("test compound"), […] of body weight of a 0.025% w/v solution of PBQ was injected intraperitoneally into each mouse. Ten mice which were given saline in place of a test compound of the invention were used as a control group.
Five minutes later, each mouse was individually placed into a glass beaker for observation, and the number of writhes occurring during the following ten-minute period was counted.
A test compound was considered to be "active" in this assay (to have produced analgesia in a mouse) if, after the administration of the compound to the mouse, the number of writhes elicited by a mouse injected with PBQ was equal to, or less than, one-half the median number of writhes recorded for the saline-treated control group of mice that day, as described by Taber in "Predictive Value of Analgesic Assays in Mice and Rats," Advances in Biochemical Psychopharmacology, 8, 191 (1974).
The standard initial screening doses of a test compound employed in this assay were 10 and/or 30 […] for both routes of administration.

The mark [1] stands for this setting: read-out: Mean IC50 Value, δ, rat forebrain membranes, 3[H]-DSLET 1.0 nM, 37° C., pH 7.4.
The mark [2] stands for this setting: rat forebrain membranes, 3[H]-DAMGO 2.0 nM, 37° C., pH 7.4.
[3] abbreviates: sc, subcutaneous, mice, 30 min before PBQ, read-out: PBQ writhing assay ED50, S.C.

Where a name gives a salt, the structure may show the parent alone. Read-outs that look alike come from different tables or passages of the source.

δ opioid receptor, sequence (P33533 whole entry): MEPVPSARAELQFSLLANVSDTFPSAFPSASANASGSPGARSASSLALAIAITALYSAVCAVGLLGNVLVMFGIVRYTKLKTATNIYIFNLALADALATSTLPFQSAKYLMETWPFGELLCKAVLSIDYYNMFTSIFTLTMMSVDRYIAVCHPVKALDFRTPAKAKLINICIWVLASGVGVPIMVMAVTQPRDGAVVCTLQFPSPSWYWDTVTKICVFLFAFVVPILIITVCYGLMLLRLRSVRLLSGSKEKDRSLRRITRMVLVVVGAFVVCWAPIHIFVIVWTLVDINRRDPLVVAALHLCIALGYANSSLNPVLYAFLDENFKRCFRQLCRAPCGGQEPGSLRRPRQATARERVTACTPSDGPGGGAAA
μ opioid receptor, sequence (P33535 whole entry): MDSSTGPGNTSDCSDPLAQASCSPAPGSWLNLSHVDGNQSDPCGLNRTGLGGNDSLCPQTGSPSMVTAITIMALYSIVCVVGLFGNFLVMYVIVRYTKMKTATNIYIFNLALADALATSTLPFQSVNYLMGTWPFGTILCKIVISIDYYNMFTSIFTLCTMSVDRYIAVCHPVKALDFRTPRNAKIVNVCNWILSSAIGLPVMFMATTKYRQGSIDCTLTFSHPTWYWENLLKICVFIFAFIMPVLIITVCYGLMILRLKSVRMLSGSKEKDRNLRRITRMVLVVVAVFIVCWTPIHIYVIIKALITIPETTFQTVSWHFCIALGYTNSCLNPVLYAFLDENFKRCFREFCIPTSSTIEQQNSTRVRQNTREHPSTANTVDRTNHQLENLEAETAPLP

Take “7-(3-Furanylmethyl)-5,6,7,8,14,14bβ-hexahydro-4,8(R,α)-methano-4bS*-benzofuro[2,3-a]pyrido [4,3-b]carbazole-1,8aβ(9H)-diol, hydrochloride [Example XIV]”: on δ opioid receptor (setting [1]), the 50% inhibitory concentration (IC50) is 31.8 nM. The “Mean IC50 Value, μ” value at μ opioid receptor (setting [2]) was “inactive”.

Turning to `CC(=O)Oc1ccc2c3c1O[C@H]1c4oc5ccccc5c4C[C@@]4(OC(C)=O)[C@@H](C2)N(C#N)CC[C@]314` (relative stereo) [Example I, 1,8aβ-Bis(acetyloxy)-5,6,8,8a,9,14bβ-hexahydro-4,8(R,α)-methano-4bS*-7H-bisbenzofuro [3,2-e:2',3'-g]isoquinoline-7-carbonitrile], the inhibition at 0.1 µM at δ opioid receptor (read-out: Percent Displacement, δ at 100 nM) worked out at 14%. In the test on mice (setting [3]), the ED50 was found to be 2.4 mg/kg. Moreover, in the test with mice (intragastric, mice, 30 min before PBQ), the “PBQ writhing assay ED50, I.G.” value was “inactive”.

Take `Oc1ccc2c3c1O[C@H]1c4oc5ccccc5c4C[C@@]4(O)[C@@H](C2)NCC[C@]314` (relative stereo) [Example II, 6,7,8,14bβ-Tetrahydro-4,8(R,α)-methano-4bS*-5H-bisbenzofuro[3,2-e:2',3'-g]isoquinoline-1,8aβ(9H)-diol]: at δ opioid receptor, the 50% inhibitory concentration (IC50) amounted to 6.5 nM and the “Mean IC50 μ/δ Ratio” value turned out to be 45. On μ opioid receptor, this compound yielded an IC50 of 291 nM. For the same compound, the “Percent Displacement, μ” value on μ opioid receptor (μ receptor, 3[H]-DAMGO 2.0 nM, test concentration not given) is listed as 2. Also, the “Number of mice in 10 exhibiting inhibition of writhing, I.G.” value with mice (intragastric, dose not stated in table (screening doses 10 and/or 30 mpk)) was 4/10. Further, the “Number of mice in 10 exhibiting inhibition of writhing, S.C.” value in the test with mice (subcutaneous, dose not stated in table (screening doses 10 and/or 30 mpk)) was 4/10.

Regarding `CC(C)=CCN1CC[C@]23c4c5ccc(O)c4O[C@H]2c2oc4ccccc4c2C[C@@]3(O)[C@H]1C5` (relative stereo) [Example III, 6,7,8,14bβ-tetrahydro-7-(3-methyl-2-butenyl)-4,8 (R,α)-methano-4bS*-5H-bisbenzofuro[3,2-e:2',3'-g]isoquinoline-1,aβ(9H)-diol, monohydrochloride], the results for the IC50 at δ opioid receptor and at μ opioid receptor were 51.1 nM and 4670 nM, respectively. Besides, the “Mean IC50 μ/δ Ratio” value at δ opioid receptor came to 91.

`CCOC(=O)CN1CC[C@]23c4c5ccc(O)c4O[C@H]2c2oc4ccccc4c2C[C@@]3(O)[C@H]1C5` (relative stereo) [Example IV, Ethyl 5,6,8,8a,9,14bβ-hexahydro-1,8aβ-dihydroxy-4,8(R,α)-methano-4bS*-7H-bisbenzofuro [3,2-e:2',3'-g]isoquinoline-7-acetate, hydrochloride]: the concentration for half-maximal inhibition (IC50) was 11.8 nM at δ opioid receptor and above 10000 nM at μ opioid receptor. Also, the “Mean IC50 μ/δ Ratio” value at δ opioid receptor was above 850.

Regarding `CN1CC[C@]23c4c5ccc(O)c4O[C@H]2c2[nH]c4ccc(C(=O)O)cc4c2C[C@@]3(O)[C@H]1C5` (relative stereo) [Example V, 5,6,7,8,8a,9,14,14bβ-Octahydro-1,8aβ-dihydroxy-7-methyl-4,8(R,α)-methano-4bS*-benzofuro [2,3-a]pyrido [4,3-b]carbazole-11-carboxylic acid, monohydrochloride], the IC50 at δ opioid receptor was determined as 660 nM; at μ opioid receptor, 810 nM. In addition, the “Mean IC50 μ/δ Ratio” value on δ opioid receptor was determined as 1.2. The ED50 in the test with mice (po, intragastric, mice, 30 min before PBQ, read-out: PBQ writhing assay ED50, I.G.) amounted to 3.4 mg/kg; in the test with mice (setting [3]), 1.3 mg/kg.

Consider `CCOC(=O)c1ccc2[nH]c3c(c2c1)C[C@@]1(O)[C@H]2Cc4ccc(O)c5c4[C@@]1(CCN2C)[C@H]3O5` (relative stereo) [Example VI, Ethyl 5,6,7,8,8a,9,14,14bβ-Octahydro1,8αP-dihydroxy-7-methyl-4,8(R,α)methano-4bS*-benzofuro [2,3-a]pyrido[4,3-b]carbazole-11-carboxylate, monohydrochloride], for which the “Mean IC50 μ/δ Ratio” value at δ opioid receptor is on record as 3.8. In addition, the half-inhibitory concentration (IC50) on δ opioid receptor (setting [1]) was found to be 65 nM; on μ opioid receptor (read-out: Mean IC50 Value, μ, rat forebrain membranes, 3[H]-DAMGO 2.0 nM, 37° C., pH 7.4) it was 248 nM.

In turn, `Oc1ccc2c3c1O[C@H]1c4oc5ccccc5c4C[C@@]4(O)[C@@H](C2)N(CCc2ccccc2)CC[C@]314` (relative stereo) [Example VII, 6,7,8,14bβ-tetrahydro-7-(2-phenylethyl)-4,8(R,α)-methano-4bS*-5H-bisbenzofuro [3,2-e:2',3'-g]isoquinoline-1,8aβ(9H)-diol, hydrochloride] returned an IC50 at δ opioid receptor of 34.5 nM. Besides, the inhibition at 1 µM on μ opioid receptor (read-out: Percent Displacement, μ at 1 μM) amounted to 35%.

As for `O=C(O)CN1CC[C@]23c4c5ccc(O)c4O[C@H]2c2oc4ccccc4c2C[C@@]3(O)[C@H]1C5` (relative stereo) [Example VIII, 5,6,8,8a,9,14bβ-Hexahydro-1,8aβ-dihydroxy-4,8 (R,α)-methano-4bS*-7H-bisbenzofuro[3,2-e:2',3'-g]isoquinoline-7-acetic acid, hydrochloride], the IC50 on δ opioid receptor is 160 nM; on μ opioid receptor it was 4000 nM. Moreover, the “Mean IC50 μ/δ Ratio” value on δ opioid receptor came out at 25.

`CN1CC[C@]23c4c5ccc(O)c4O[C@H]2c2oc4ccccc4c2C[C@@]3(OCc2ccccc2)[C@H]1C5` (relative stereo) [Example X, 6,7,8,8a,9,14bβ-hexahydro-7-methyl-8aβ-(phenylmethoxy)-4,8(R,α)-methano-4bS*-5H-bisbenzofuro[3,2-e:2',3'-g]isoquinolin-1-ol, monohydrochloride]: at δ opioid receptor, the IC50 is 8 nM and the “Mean IC50 μ/δ Ratio” value is listed as 44. Moreover, the 50% inhibitory concentration (IC50) on μ opioid receptor is 356 nM.

As to `CN1CC[C@]23c4c5ccc(O)c4O[C@H]2c2[nH]c4c(I)cccc4c2C[C@@]3(O)[C@H]1C5` (relative stereo) [Example XII, 5,6,7,8,14,14bβ-Hexahydro-13-iodo-7-methyl-4,8 (R,α)-methano-4bS*-benzofuro[2,3-a]pyrido[4,3-b]carbazole-1,8aβ(9H)-diol, monohydrochloride], at δ opioid receptor, the IC50 was found to be 9.5 nM and the “Mean IC50 μ/δ Ratio” value came out at 10.6. Also, the half-maximal inhibitory concentration (IC50) on μ opioid receptor came to 101 nM.

In the case of `OCc1ccc(CN2CC[C@]34c5c6ccc(O)c5O[C@H]3c3oc5ccccc5c3C[C@@]4(O)[C@H]2C6)o1` (relative stereo) [Example XIII, 5,6,7,8,14,14bβ-Hexahydro-7-[[5-(hydroxymethyl)-2-furanyl]methyl]-4,8(R,α)-methano-4b S*-benzofuro[2,3-a]pyrido[4,3-b]carbazole-1,8aβ(9H)-diol, monohydrochloride], at δ opioid receptor, the half-inhibitory concentration (IC50) was around 100 nM. At μ opioid receptor (setting [2]), the “Mean IC50 Value, μ” value was “inactive”.

For the compound `Oc1ccc2c3c1O[C@H]1c4oc5ccccc5c4C[C@@]4(O)[C@@H](C2)N(Cc2ccccc2)CC[C@]314` (relative stereo) [Example XVI, 6,7,8,14bβ-Tetrahydro-7-(2-phenylmethyl)-4,8 (R,α)-methano-4bS*-5H-bisbenzofuro [3,2-e:2',3'-g]isoquinoline-1,8aβ(9H)-diol], the inhibition at 0.05 µM at δ opioid receptor (read-out: Percent Displacement, δ at 50 nM) was 50%. Moreover, the “Mean IC50 Value, μ” value at μ opioid receptor (setting [2]) is “inactive”.
